ChEMBL document CHEMBL1201862, “PubChem BioAssay data set” (2004)
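Results reflect a 48-hour exposure of cells in 96-well plates to compound at five concentrations. GI50 marks 50% less growth.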 The source made the active and inactive calls. Rule as the data show it: active = GI50 up to about 1.1 µM and inactive = higher.

Experiments:
Assay in all cases: NCI anticancer screen, dose series, 48 h
UO-31 = tested on: UO-31
U-251 = tested on: U-251
TK-10 = tested on: TK-10
SF-295 = tested on: SF-295
OVCAR-8 = tested on: OVCAR-8
SK-OV-3 = tested on: SK-OV-3
SNB-19 = tested on: SNB-19
NCI-H460 = tested on: NCI-H460
M14 = tested on: M14
SK-MEL-5 = tested on: SK-MEL-5
SF-268 = tested on: SF-268
IGROV-1 = tested on: IGROV-1
OVCAR-4 = tested on: OVCAR-4
SK-MEL-28 = tested on: SK-MEL-28
A549 = tested on: A549
NCI-H226 = tested on: NCI-H226
SR = tested on: SR
SNB-75 = tested on: SNB-75
RPMI-8226 = tested on: RPMI-8226

| SMILES | GI50 (UO-31) | GI50 (U-251) | GI50 (TK-10) | GI50 (SF-295) | GI50 (OVCAR-8) | GI50 (SK-OV-3) | GI50 (SNB-19) | GI50 (NCI-H460) | GI50 (M14) | GI50 (SK-MEL-5) | GI50 (SF-268) | GI50 (IGROV-1) | GI50 (OVCAR-4) | GI50 (SK-MEL-28) | GI50 (A549) | GI50 (NCI-H226) | GI50 (SR) | GI50 (SNB-75) | GI50 (RPMI-8226) |
| --- | --- | --- | --- | --- | --- | --- | --- | --- | --- | --- | --- | --- | --- | --- | --- | --- | --- | --- | --- |
| O=C1/C(=C/c2ccccc2)CCCC/C1=C\c1ccccc1 | 55 µM (inactive) | 62.2 µM (inactive) | > 100 µM (inactive) | 72.3 µM (inactive) | 75.3 µM (inactive) | > 100 µM (inactive) | > 100 µM (inactive) | 51.3 µM (inactive) | > 100 µM (inactive) | 24.1 µM (inactive) | 88.9 µM (inactive) | > 100 µM (inactive) | 75 µM (inactive) | > 100 µM (inactive) | 41.7 µM (inactive) | 39.4 µM (inactive) | 12.8 µM (inactive) | 66.7 µM (inactive) |  |
| c1cc2c(cc1C1OCC3C(c4ccc5c(c4)OCO5)OCC13)OCO2 (stereo unspecified) | 57 µM (inactive) | 83 µM (inactive) | 78.9 µM (inactive) | 87.1 µM (inactive) | 85.3 µM (inactive) | > 100 µM (inactive) | > 100 µM (inactive) | 75.3 µM (inactive) | 66.8 µM (inactive) | 28.4 µM (inactive) | > 100 µM (inactive) | 75.2 µM (inactive) | > 100 µM (inactive) | 64.7 µM (inactive) | 54 µM (inactive) | 58.3 µM (inactive) |  | 50.8 µM (inactive) |  |
| CCOC(=O)C(=CNC(Cc1c[nH]c2ccccc12)C(=O)OC)C(=O)OCC (stereo unspecified) | 74.6 µM (inactive) | > 100 µM (inactive) | > 100 µM (inactive) | > 100 µM (inactive) | > 100 µM (inactive) | > 100 µM (inactive) | > 100 µM (inactive) | 44.7 µM (inactive) | > 100 µM (inactive) | 86.3 µM (inactive) | > 100 µM (inactive) | > 100 µM (inactive) |  | > 100 µM (inactive) |  | > 100 µM (inactive) |  | > 100 µM (inactive) | > 100 µM (inactive) |
| C#CCOc1c(C(=O)OCC)c(=O)n(C)c2ccccc12 | > 100 µM (inactive) | > 100 µM (inactive) | > 100 µM (inactive) | > 100 µM (inactive) | > 100 µM (inactive) | > 100 µM (inactive) | > 100 µM (inactive) | > 100 µM (inactive) | > 100 µM (inactive) | > 100 µM (inactive) | > 100 µM (inactive) | > 100 µM (inactive) |  | > 100 µM (inactive) |  | > 100 µM (inactive) |  | 54.5 µM (inactive) | > 100 µM (inactive) |
| COC(=O)CC(c1ccccc1)C1(c2ccccc2)SCCS1 (stereo unspecified) |  | > 290 µM (inactive) | > 290 µM (inactive) | > 290 µM (inactive) | 169 µM (inactive) | > 290 µM (inactive) | > 290 µM (inactive) | 261 µM (inactive) |  | 189 µM (inactive) | 150 µM (inactive) | > 290 µM (inactive) |  | > 290 µM (inactive) | 272 µM (inactive) | > 290 µM (inactive) | 54.8 µM (inactive) |  | 21.2 µM (inactive) |
| CCCCN(CCCC)C(=O)/C(CC(=O)c1cccc2ccccc12)=N\NC(=O)c1cc2ccccc2cc1O | 10.1 µM (inactive) | 19.3 µM (inactive) | 40.1 µM (inactive) | 18.3 µM (inactive) | 16.4 µM (inactive) |  | 26.1 µM (inactive) | 18.4 µM (inactive) | 21.9 µM (inactive) | 13.5 µM (inactive) | 11.2 µM (inactive) | 15.3 µM (inactive) | 25.6 µM (inactive) | 26 µM (inactive) | 21.1 µM (inactive) | 19.9 µM (inactive) |  | 13.4 µM (inactive) | 3.52 µM (inactive) |
| O=C1CCCCCCCCCCC(=O)C2CCOCCOCCOCCC1Cc1cccc(n1)C2 | 42.1 µM (inactive) | > 100 µM (inactive) | > 100 µM (inactive) | 76.7 µM (inactive) | 59.3 µM (inactive) | > 100 µM (inactive) | > 100 µM (inactive) | 99.1 µM (inactive) | 67.6 µM (inactive) | 42.4 µM (inactive) | 94.4 µM (inactive) | 90.4 µM (inactive) | 51.5 µM (inactive) | > 100 µM (inactive) | > 100 µM (inactive) | 60 µM (inactive) |  | 49.3 µM (inactive) | 39.1 µM (inactive) |
| CC(SC1=CC(=O)c2c(Cl)ccc(O)c2C1=O)C(=O)O (stereo unspecified) |  | 17.7 µM (inactive) | 20.7 µM (inactive) | 19 µM (inactive) | 18.2 µM (inactive) |  |  | 26.6 µM (inactive) |  | 14.3 µM (inactive) | 20.2 µM (inactive) | 17.3 µM (inactive) |  | 18.5 µM (inactive) | 22.4 µM (inactive) | 43.3 µM (inactive) | 6.56 µM (inactive) | 16.9 µM (inactive) | 19.8 µM (inactive) |
| O=C1C(=O)N(c2cc(Cl)ccc2Cl)C(=O)C(=O)C1c1nc2ccccc2s1 | 16.2 µM (inactive) | > 100 µM (inactive) | > 100 µM (inactive) | > 100 µM (inactive) | > 100 µM (inactive) | > 100 µM (inactive) | > 100 µM (inactive) | > 100 µM (inactive) | > 100 µM (inactive) | > 100 µM (inactive) | 86.5 µM (inactive) | > 100 µM (inactive) | > 100 µM (inactive) | > 100 µM (inactive) | > 100 µM (inactive) | 34.4 µM (inactive) |  | 49.4 µM (inactive) | > 100 µM (inactive) |
| CC(C)(C)[Si](C)(C)O/N=C\c1cccc(O[Si](C)(C)C(C)(C)C)c1 | 15.6 µM (inactive) | 17.5 µM (inactive) | 24.5 µM (inactive) | 18 µM (inactive) | 20 µM (inactive) | 21 µM (inactive) | 20.7 µM (inactive) | 17.7 µM (inactive) | 16 µM (inactive) | 17.8 µM (inactive) | 18.3 µM (inactive) | 18.6 µM (inactive) | 16.1 µM (inactive) |  | 17.8 µM (inactive) |  |  | 16.7 µM (inactive) | 17 µM (inactive) |
| CCCCN/C(=N\C#N)N(Cc1ccccc1)Cc1ccccc1 | 20.7 µM (inactive) | 28.5 µM (inactive) | 31.6 µM (inactive) | 23.4 µM (inactive) | 37 µM (inactive) | 29.7 µM (inactive) | 35.7 µM (inactive) | 58.5 µM (inactive) | 20.1 µM (inactive) | 13.3 µM (inactive) | 38.1 µM (inactive) | 22.2 µM (inactive) | 27.3 µM (inactive) | 34.2 µM (inactive) | 37.2 µM (inactive) | 41.7 µM (inactive) |  | 31.5 µM (inactive) | 16.6 µM (inactive) |
| CN(C)C(=S)/N=c1\ss/c(=N\C(=S)N(C)C)n1-c1ccc2c(c1)OCO2 | > 100 µM (inactive) | > 100 µM (inactive) | > 100 µM (inactive) | > 100 µM (inactive) | > 100 µM (inactive) | > 100 µM (inactive) | > 100 µM (inactive) |  | > 100 µM (inactive) | > 100 µM (inactive) | > 100 µM (inactive) | 10 µM (inactive) | 4.19 µM (inactive) | > 100 µM (inactive) | > 100 µM (inactive) | > 100 µM (inactive) | > 100 µM (inactive) | > 100 µM (inactive) |  |
| COC(=O)C(CC(=O)c1c[nH]c2ccccc12)c1c[nH]c2ccccc12 (stereo unspecified) | 18.2 µM (inactive) | 20.8 µM (inactive) | 31.2 µM (inactive) | > 10 µM (inactive) | 22.6 µM (inactive) | 41.9 µM (inactive) |  | 18.8 µM (inactive) | 18.2 µM (inactive) | 16.4 µM (inactive) |  | > 10 µM (inactive) | 17.1 µM (inactive) | 19.5 µM (inactive) | 21.2 µM (inactive) | 22 µM (inactive) |  | 21.2 µM (inactive) | 11.5 µM (inactive) |
| CNC(=O)c1nc[nH]c1/N=N/N(C)N | > 100 µM (inactive) | > 100 µM (inactive) | > 100 µM (inactive) | > 100 µM (inactive) | > 100 µM (inactive) | > 100 µM (inactive) |  | 55 µM (inactive) | > 100 µM (inactive) | 49.9 µM (inactive) | > 100 µM (inactive) | > 100 µM (inactive) | > 100 µM (inactive) | > 100 µM (inactive) | > 100 µM (inactive) | > 100 µM (inactive) |  | 80.9 µM (inactive) | > 100 µM (inactive) |
| CN(C)CCCOc1ccc(/C=C2/CCC/C(=C/c3ccc(OCCCN(C)C)cc3)C2=O)cc1 | 1.79 µM (inactive) | 0.918 µM (active) | 2.67 µM (inactive) | 1.9 µM (inactive) | 3.08 µM (inactive) | 1.93 µM (inactive) | 2.08 µM (inactive) | 2.07 µM (inactive) | 2.11 µM (inactive) | 2.23 µM (inactive) | 2 µM (inactive) | 2.72 µM (inactive) | 2.31 µM (inactive) | 1.79 µM (inactive) | 3.3 µM (inactive) |  |  | 1.28 µM (inactive) | 1.26 µM (inactive) |
| COC1[C@@H](OC(C)=O)[C@@H](NC(=O)C(Cl)(Cl)Cl)C(I)[C@@H](N2C(=O)c3ccccc3C2=O)[C@H]1OC (stereo partly specified) |  | > 100 µM (inactive) |  | 36.6 µM (inactive) | > 100 µM (inactive) |  | > 100 µM (inactive) | > 100 µM (inactive) | > 100 µM (inactive) | > 100 µM (inactive) | > 100 µM (inactive) | > 100 µM (inactive) | 72.3 µM (inactive) | > 100 µM (inactive) | > 100 µM (inactive) | > 100 µM (inactive) | > 100 µM (inactive) | > 100 µM (inactive) | > 100 µM (inactive) |
